Holding throughout (test): DTP human tumour cell line panel, 48 h
Test [1] has as its system EKVX NSCLC.
In test [2] the test system is HCC-2998 colon.
Test [3] deals with MCF7 breast.
Test [4] has as its system MDA-MB-231 breast.
In test [5] the test system is NCI/ADR-RES ovarian.
Test [6] concerns OVCAR-5 ovarian.
Test [7] relates to RPMI-8226 leukemia.
For test [8], the system named is SK-MEL-5 melanoma.
For test [9], the system named is UACC-62 melanoma.

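Briefly, cells in 96-well plates were exposed to five compound concentrations for 48 h, and endpoints were estimated by linear interpolation. TGI: concentration producing complete growth inhibition.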

Turning to `COc1ccc2c(c1)-c1[nH]c3ccccc3c1CC2`, the concentration for total growth inhibition (TGI) (usually the concentration at which net growth stops) in test [1] stood at 21.9 µM; in test [2], 23.6 µM; in [3] it was 29.7 µM; in test [4], 33.8 µM; in test [5], 24.3 µM; in [6] it was 29 µM. The TGI worked out at 71.2 µM in test [7], 28.2 µM in test [8] and 29.4 µM in test [9].

In the case of `CC(/C=N/NC1=NCCCN1)=N\NC1=NCCCN1`, the TGI in [1], in test [2], in test [3], in [4], in test [5] and in test [6] was greater than 100 µM each time. Further, the TGI in [7], in test [8] and in test [9] was greater than 100 µM each time.

For `Cc1ccc2c(=O)c(-c3n[nH]c(=S)s3)c[nH]c2n1`, the TGI in test [1], in test [3], in [4], in [5], in [6] and in test [7] was greater than 100 µM each time. For the same compound, the TGI in test [8] and in test [9] was greater than 100 µM throughout.

Take `COc1cc(C=O)cc(C=Nc2ccc(S(N)(=O)=O)cc2)c1O`: the TGI is greater than 100 µM in test [1]; 42.7 µM in test [2]; greater than 100 µM in test [3]; 76.4 µM in test [4]; greater than 100 µM in [5]; greater than 100 µM in [6]. Further, the TGI in test [7] was 33.3 µM; in test [8], 23 µM; in test [9], greater than 100 µM.

In the case of `COC(=O)C(Cc1nc2ccccc2[nH]c1=O)C(=O)C(=O)Nc1cc(C(F)(F)F)ccc1Cl` (stereo not drawn), the TGI was determined as 39 µM in test [1]; 26.4 µM in test [2]; 27.4 µM in test [3]; 52.5 µM in test [4]; 53.3 µM in [5]; 33.5 µM in [6]. Moreover, the results for the TGI in test [7], in [8] and in test [9] were 51.5 µM, 56 µM and 53.4 µM, respectively.

`COc1ccc(C[C@@H]2OC3(C=CC(=O)C=C3)O[C@H]2Cc2ccc(OC)cc2)cc1`: the TGI in test [1] is 3.7 µM; in [2], 2.95 µM; in test [3], 5.68 µM; in test [4], 4.15 µM; in test [5] it was 2.64 µM; in test [6], 2.05 µM. For the same compound, the TGI in test [7] was determined as 0.653 µM; in test [8], 2.94 µM; in test [9], 3.7 µM.

For `C#CCCCC(=O)N(C(=O)CS(=O)CC)c1ccccc1` (stereo not drawn), the TGI in test [1], in test [2], in test [3], in test [4], in test [5] and in test [6] was greater than 100 µM each time. Further, the TGI in test [8] and in test [9] was greater than 100 µM in each case.

In the case of `COP(C)(=O)C(Cc1c[nH]c2ccccc12)NC(=O)OCc1ccccc1` (stereo not drawn), the TGI in [1], in [2], in test [3], in test [4], in [5] and in [6] was greater than 100 µM in each case. Moreover, the TGI in [7], in [8] and in test [9] was greater than 100 µM in each case.

With `NCCCC[C@H](N)C(=O)Nc1ccc(-c2nc3ccccc3s2)cc1Cl`, the TGI in test [1] is 19.6 µM; in [2], greater than 38.4 µM; in test [3] it was 9.01 µM; in test [4], 26.6 µM; in test [5], 51.8 µM; in test [6] it was 17.8 µM. For the same compound, the TGI is 25.9 µM in test [8] and 28.5 µM in test [9].

In the case of `COc1ccccc1NCC(=O)Nn1c(C)nc2ccc(S(=O)(=O)Nc3ccccc3OC)cc2c1=O`, the TGI in test [1], in [2], in test [3], in [4], in test [5] and in [6] was greater than 100 µM each time. The TGI in test [7] and in [9] was greater than 100 µM each time.

For the compound `Cc1sc2nc3n(c(=O)c2c1C)N=C(c1ccc([N+](=O)[O-])cc1)CS3`, the TGI in [1], in test [2], in test [3], in [4], in test [5] and in [6] was greater than 100 µM in each case. Further, the TGI in test [7], in test [8] and in test [9] was greater than 100 µM in each case.

For the compound `CCOC(=O)CC[C@H](N)C(=O)N[C@H](Cc1ccc(N(CCCl)CCCl)cc1)C(=O)OCC`, the TGI was 19.1 µM in [1]; 6.21 µM in test [2]; greater than 47.5 µM in test [3]; 16.2 µM in test [4]; 11.3 µM in test [5]; 14.7 µM in test [6]. For the same compound, the TGI in test [7] is greater than 73.9 µM; in test [8], greater than 100 µM.

As to `C[N+](C)(N)c1nc(N)c(C#N)c(C#N)c1C#N`, the TGI in test [1], in [2], in test [3], in test [4], in test [5] and in [6] was greater than 10 µM in each case. For the same compound, the TGI in [7], in [8] and in test [9] was greater than 10 µM throughout.

With `CC(=O)OCC1OC(N2C(S)=C(C#N)C(c3ccco3)C(C(C)=O)=C2c2ccccc2)C(OC(C)=O)C(OC(C)=O)C1OC(C)=O` (stereo not drawn), the TGI in test [2], in test [3], in test [4], in test [5], in test [6] and in test [7] was greater than 100 µM each time. In addition, the TGI in test [8] and in [9] was greater than 100 µM each time.

For the compound `COc1ccccc1NS(=O)(=O)c1ccc2ncn(NS(=O)(=O)c3ccc(Cl)cc3)c(=O)c2c1`, the TGI in [1], in test [2], in test [3], in test [4], in [5] and in test [6] was greater than 100 µM throughout. For the same compound, the TGI in test [7] and in test [9] was greater than 100 µM each time.

For the origin of these results see PubChem BioAssay (NCI).
